Results reported in patent US12371428B2 (Exelixis, Inc., priority 2019, dated 2025).

What was measured:
[1] = target: Human KDR (residues 790-1356) (Homo sapiens (Human), UniProt P35968); assay: Human KDR kinase assay, HTRF KinEase (Example B-2); type: biochemical
Procedure: (§1) Kinase activity and compound inhibition were also investigated using the HTRF® KinEase assay (Cisbio Cat #62TKOPEB) per manufacturer's instructions. In short, compounds were delivered in 300 nL volumes at 10 different concentrations in DMSO (3% final) to empty 384-well assay plates (Corning cat #3824). A mixture of enzyme, […] biotynlated peptide substrate, and buffer in 10 μL volume was added. The assay was started upon the addition of ATP (at Km). The 10 μL reaction was incubated at room temperature. The reaction was stopped upon the addition of detection buffer containing streptavidin-XL665 ([…]) and TK antibody-Eu3+([…]). After a 60 min incubation at room temperature, the fluorescence at 665 nm and 620 nm was read on an Envision microplate reader (Perkin Elmer).
(§2) Kinase activity normalized to DMSO (100% activity) and reference compound at […] and (0% activity) was calculated using the fluorescence ratio […]. IC50 values were calculated by nonlinear regression analysis using a 4-parameter logistic curve fit in ActivityBase XE (IDBS).
Example B-2: Human KDR (residues 790-1356; CarnaBio, 0.1 ng/well) was also incubated with enzymatic buffer (Cisbio) supplemented with 5 mM MgCl2, 1 mM MnCl2, and 1 mM DTT. The mixture was added to the pre-plated compounds. The reaction was initiated upon addition of ATP at Km (4.0 μM). The reaction was incubated at room temperature for 40 min and stopped upon the addition of SA-XL665 and TK-antibody both diluted in EDTA-containing kinase detection buffer (Cisbio). The kinase activity was calculated as stated above and the IC50 values were reported.

[2] = target: Human MER (residues 528-999) (Homo sapiens (Human), UniProt Q12866); assay: Human Mer kinase assay, HTRF KinEase (Example C-2); type: biochemical
Procedure: as §1, §2
Example C-2: Human MER (residues 528-999; CarnaBio, 1 ng/well) was also incubated with enzymatic buffer (Cisbio) supplemented with 5 mM MgCl2 and 1 mM DTT. The mixture was added to the pre-plated compounds. The reaction was initiated upon addition of ATP at Km (40 μM). The reaction was incubated at room temperature for 60 min and stopped upon the addition of SA-XL665 and TK-antibody both diluted in EDTA-containing kinase detection buffer (Cisbio). The kinase activity was calculated as stated above and the IC50 values were reported.

[3] = target: Met (phospho-Met, HGF-stimulated PC-3 prostate cancer cells) (Homo sapiens (Human), UniProt P08581); assay: Met autophosphorylation ELISA in PC-3 cells (Example F); type: cell-based; conditions: cellular activity; Met autophosphorylation ELISA in PC-3 cells; read-out: c-Met IC50
In short: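 Serum-starved (3 h) PC-3 cells were treated 1 h with compounds (8-point curve, 0.3% DMSO), then stimulated with 100 ng/mL human HGF for 10 min. Lysate phospho-Met (panTyr) was measured by sandwich ELISA, normalised to DMSO and reference-inhibitor controls. IC50 came from 4-parameter logistic fit.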

[4] = target: KDR (phospho-KDR, VEGF165-stimulated HUVEC cells) (Homo sapiens (Human), UniProt P35968); assay: KDR autophosphorylation ELISA in HUVEC cells (Example G); type: cell-based; conditions: cellular activity; KDR autophosphorylation ELISA in HUVEC cells
In short: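 Cells seeded, grown 24 h at 37 °C, starved 24 h serum-free; cpd 8-pt curve, 0.3% DMSO, 1 h; VEGF165 100 ng/mL, 5 min; cold PBS wash, lysis with orthovanadate and protease/phosphatase inhibitors; pKDR ELISA; IC50 by 4-parameter logistic regression.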

[5] = target: Mer (phospho-Mer, MERTK-transfected 293A cells) (Homo sapiens (Human), UniProt Q12866); assay: Mer autophosphorylation ELISA in transient transfected 293A cells (Example H); type: cell-based; conditions: cellular activity; Mer autophosphorylation ELISA in transient transfected 293A cells
In short: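 293A cells transiently transfected with human MERTK were treated 1 h in serum-free medium with an 8-point compound dilution (0.3% DMSO final). Lysates were assayed by phospho-Mer sandwich ELISA against a phospho-Mer standard; IC50 came from a 4-parameter logistic fit, normalised to DMSO (100%) and reference-inhibitor (0%) controls.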

[6] = protocol of Example B-2 (other compounds)
[7] = protocol of Example C-2 (other compounds)

Human KDR (residues 790-1356), sequence (P35968 790-1356): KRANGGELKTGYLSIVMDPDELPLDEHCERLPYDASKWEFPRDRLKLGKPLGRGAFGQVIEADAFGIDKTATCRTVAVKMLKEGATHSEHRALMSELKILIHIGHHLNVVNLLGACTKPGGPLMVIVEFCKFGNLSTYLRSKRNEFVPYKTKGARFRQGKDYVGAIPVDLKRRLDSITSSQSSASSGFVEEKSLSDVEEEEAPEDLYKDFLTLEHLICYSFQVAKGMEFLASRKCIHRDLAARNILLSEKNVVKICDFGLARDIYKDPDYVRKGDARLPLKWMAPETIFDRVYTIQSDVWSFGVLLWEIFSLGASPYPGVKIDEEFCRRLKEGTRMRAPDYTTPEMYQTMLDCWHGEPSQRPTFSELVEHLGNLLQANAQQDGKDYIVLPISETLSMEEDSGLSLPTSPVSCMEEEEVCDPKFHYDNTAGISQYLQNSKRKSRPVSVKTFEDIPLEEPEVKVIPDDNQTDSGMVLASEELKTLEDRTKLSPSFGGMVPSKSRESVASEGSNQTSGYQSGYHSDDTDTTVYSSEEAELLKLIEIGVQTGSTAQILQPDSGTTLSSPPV
Met (phospho-Met, HGF-stimulated PC-3 prostate cancer cells), sequence (P08581 25-1390): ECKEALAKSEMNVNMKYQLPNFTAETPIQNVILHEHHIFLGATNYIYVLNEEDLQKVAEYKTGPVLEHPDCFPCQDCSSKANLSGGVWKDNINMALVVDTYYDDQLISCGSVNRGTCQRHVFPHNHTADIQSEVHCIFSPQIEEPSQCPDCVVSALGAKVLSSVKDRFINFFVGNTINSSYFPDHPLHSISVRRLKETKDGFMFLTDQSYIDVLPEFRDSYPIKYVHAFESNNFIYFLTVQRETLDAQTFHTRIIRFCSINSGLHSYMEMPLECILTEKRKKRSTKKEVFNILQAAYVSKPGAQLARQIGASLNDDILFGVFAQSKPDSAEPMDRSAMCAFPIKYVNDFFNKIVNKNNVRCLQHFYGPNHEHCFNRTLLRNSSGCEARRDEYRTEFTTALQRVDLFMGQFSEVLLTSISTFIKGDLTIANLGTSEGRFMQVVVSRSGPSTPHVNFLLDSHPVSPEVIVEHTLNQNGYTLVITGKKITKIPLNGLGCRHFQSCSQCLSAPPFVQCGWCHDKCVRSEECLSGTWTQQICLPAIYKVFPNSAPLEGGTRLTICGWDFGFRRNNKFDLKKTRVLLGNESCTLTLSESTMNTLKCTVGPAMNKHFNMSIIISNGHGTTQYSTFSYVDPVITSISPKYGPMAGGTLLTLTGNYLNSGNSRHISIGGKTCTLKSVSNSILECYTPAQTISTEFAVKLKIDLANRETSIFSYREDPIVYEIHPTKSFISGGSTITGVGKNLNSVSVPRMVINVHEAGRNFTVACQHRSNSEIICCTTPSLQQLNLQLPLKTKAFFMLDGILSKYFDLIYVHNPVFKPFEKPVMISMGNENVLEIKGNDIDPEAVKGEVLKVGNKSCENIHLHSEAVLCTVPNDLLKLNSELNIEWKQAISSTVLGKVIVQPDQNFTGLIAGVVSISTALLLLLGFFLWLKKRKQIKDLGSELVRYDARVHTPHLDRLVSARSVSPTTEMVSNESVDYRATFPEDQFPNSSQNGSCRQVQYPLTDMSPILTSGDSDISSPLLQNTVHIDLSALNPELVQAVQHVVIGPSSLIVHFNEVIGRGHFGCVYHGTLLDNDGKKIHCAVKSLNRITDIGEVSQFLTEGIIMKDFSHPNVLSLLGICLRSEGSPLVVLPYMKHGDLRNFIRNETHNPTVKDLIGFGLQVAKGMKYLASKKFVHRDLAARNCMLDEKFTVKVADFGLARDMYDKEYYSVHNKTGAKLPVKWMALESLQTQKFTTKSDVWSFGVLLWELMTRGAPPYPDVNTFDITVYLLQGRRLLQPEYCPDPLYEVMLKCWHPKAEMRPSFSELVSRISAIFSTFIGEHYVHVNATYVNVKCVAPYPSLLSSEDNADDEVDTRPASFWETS
KDR (phospho-KDR, VEGF165-stimulated HUVEC cells), sequence (P35968 20-1356): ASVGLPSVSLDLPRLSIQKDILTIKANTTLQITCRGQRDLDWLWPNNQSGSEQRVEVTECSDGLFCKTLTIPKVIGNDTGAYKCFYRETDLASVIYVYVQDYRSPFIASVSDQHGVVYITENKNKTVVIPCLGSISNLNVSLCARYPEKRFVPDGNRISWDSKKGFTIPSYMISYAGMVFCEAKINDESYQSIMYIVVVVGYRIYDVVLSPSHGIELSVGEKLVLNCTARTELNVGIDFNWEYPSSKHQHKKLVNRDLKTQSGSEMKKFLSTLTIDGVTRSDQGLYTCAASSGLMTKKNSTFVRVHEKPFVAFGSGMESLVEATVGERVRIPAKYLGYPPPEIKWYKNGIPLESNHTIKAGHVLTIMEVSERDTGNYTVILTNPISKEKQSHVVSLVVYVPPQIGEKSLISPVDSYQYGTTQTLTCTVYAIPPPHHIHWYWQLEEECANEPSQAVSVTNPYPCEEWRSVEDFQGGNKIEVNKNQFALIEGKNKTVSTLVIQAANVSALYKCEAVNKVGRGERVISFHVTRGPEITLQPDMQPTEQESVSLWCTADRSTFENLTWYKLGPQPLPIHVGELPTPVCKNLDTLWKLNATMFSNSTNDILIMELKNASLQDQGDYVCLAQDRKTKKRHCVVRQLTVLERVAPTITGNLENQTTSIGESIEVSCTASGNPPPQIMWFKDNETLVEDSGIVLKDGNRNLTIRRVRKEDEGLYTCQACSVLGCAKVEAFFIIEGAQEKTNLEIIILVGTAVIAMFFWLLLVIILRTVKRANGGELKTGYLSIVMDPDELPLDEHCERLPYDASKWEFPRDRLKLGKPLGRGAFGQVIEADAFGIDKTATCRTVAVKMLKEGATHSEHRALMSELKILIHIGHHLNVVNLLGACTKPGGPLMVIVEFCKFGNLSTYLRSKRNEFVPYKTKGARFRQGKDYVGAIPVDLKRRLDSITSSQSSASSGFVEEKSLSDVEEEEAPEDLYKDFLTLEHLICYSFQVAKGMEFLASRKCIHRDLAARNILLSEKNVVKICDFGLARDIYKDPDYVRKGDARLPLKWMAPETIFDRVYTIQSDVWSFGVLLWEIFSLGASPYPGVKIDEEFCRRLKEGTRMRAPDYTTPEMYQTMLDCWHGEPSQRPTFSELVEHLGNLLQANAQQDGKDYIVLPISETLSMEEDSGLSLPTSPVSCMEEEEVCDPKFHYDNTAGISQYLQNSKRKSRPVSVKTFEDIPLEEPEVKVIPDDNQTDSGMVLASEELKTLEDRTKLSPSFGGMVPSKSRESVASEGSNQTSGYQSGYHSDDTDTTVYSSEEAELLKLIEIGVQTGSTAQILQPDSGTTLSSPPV
Human MER (residues 528-999), sequence (Q12866 528-999): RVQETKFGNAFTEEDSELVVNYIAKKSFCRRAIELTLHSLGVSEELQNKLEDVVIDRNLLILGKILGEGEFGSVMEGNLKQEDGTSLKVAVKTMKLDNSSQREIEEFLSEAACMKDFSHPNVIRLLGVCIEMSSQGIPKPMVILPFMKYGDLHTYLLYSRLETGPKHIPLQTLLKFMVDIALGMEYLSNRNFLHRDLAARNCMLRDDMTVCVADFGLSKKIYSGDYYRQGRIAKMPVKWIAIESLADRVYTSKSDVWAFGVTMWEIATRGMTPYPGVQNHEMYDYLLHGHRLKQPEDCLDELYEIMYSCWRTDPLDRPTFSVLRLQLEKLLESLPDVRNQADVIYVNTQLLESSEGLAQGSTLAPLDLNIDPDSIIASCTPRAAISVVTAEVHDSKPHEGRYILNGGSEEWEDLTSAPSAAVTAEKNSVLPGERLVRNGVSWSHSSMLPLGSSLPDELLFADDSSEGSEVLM
Mer (phospho-Mer, MERTK-transfected 293A cells), sequence (Q12866 21-999): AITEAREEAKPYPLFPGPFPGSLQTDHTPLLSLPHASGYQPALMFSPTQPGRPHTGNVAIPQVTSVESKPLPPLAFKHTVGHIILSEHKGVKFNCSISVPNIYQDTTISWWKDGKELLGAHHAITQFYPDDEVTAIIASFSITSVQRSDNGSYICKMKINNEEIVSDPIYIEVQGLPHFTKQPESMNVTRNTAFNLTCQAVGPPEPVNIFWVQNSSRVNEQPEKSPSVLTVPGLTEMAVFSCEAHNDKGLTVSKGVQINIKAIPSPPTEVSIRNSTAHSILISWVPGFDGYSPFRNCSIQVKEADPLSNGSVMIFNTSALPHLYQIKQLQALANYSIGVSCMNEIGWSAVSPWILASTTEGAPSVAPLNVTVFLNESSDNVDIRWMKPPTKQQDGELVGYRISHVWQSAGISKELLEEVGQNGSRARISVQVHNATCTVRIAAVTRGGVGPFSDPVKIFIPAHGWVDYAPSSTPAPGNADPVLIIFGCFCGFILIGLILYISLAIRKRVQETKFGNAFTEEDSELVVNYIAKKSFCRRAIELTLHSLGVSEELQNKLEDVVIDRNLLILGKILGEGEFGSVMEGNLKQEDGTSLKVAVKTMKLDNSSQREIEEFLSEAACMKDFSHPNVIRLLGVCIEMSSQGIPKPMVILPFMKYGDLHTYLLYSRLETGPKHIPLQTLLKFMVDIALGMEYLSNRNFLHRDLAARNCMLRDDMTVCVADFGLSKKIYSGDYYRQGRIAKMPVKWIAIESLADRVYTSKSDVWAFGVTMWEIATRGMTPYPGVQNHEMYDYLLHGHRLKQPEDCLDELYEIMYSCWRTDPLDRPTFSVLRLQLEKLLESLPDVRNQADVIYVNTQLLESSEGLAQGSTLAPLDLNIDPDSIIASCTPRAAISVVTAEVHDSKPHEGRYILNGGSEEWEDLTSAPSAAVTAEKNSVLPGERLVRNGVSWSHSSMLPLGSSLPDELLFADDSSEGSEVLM

IC50 [1, 6]	IC50 [2, 7]	IC50 [3]	IC50 [4]	IC50 [5]	IC50 ([1]; protocol of Example B-2)	IC50 ([2]; protocol of Example C-2)	Structure (SMILES)
> 300 nM	< 100 nM	< 100 nM	100 to 300 nM	< 100 nM			O=C(Nc1ccc(Oc2ccnc3cccnc23)c(F)c1)c1cccn(-c2ccc(F)cc2)c1=O [Compound 304, N-[3-Fluoro-4-(1,5-naphthyridin-4-yloxy)phenyl]-1-(4-fluorophenyl)-2-oxopyridine-3-carboxamide]
> 300 nM	< 100 nM	< 100 nM	100 to 300 nM	< 100 nM			COc1cc2nccc(Oc3ccc(NC(=O)c4c(C)c(Br)c(C)n(-c5ccc(F)cc5)c4=O)cc3F)c2nc1OC [Compound 305, 5-Bromo-N-[4-[(6,7-dimethoxy-1,5-naphthyridin-4-yl)oxy]-3-fluorophenyl]-1-(4-fluorophenyl)-4,6-dimethyl-2-oxopyridine-3-carboxamide]
> 300 nM	< 100 nM	< 100 nM	100 to 300 nM	< 100 nM			COc1cc2nccc(Oc3ccc(NC(=O)c4c(C)c(C)c(C)n(-c5ccc(F)cc5)c4=O)cc3F)c2nc1OC [Compound 306, N-[4-[(6,7-Dimethoxy-1,5-naphthyridin-4-yl)oxy]-3-fluorophenyl]-1-(4-fluorophenyl)-4,5,6-trimethyl-2-oxopyridine-3-carboxamide]
> 300 nM	< 100 nM	< 100 nM	> 300 nM	< 100 nM			COc1cc2nccc(Oc3ccc(NC(=O)c4c(C)c(Cl)c(C)n(-c5ccc(F)cc5)c4=O)cc3)c2nc1OC [Compound 307, 5-Chloro-N-[4-[(6,7-dimethoxy-1,5-naphthyridin-4-yl)oxy]phenyl]-1-(4-fluorophenyl)-4,6-dimethyl-2-oxopyridine-3-carboxamide]
> 300 nM	< 100 nM	< 100 nM	< 100 nM	< 100 nM			COc1cc2nccc(Oc3ccc(NC(=O)c4c(C)c(Cl)c(C)n(-c5ccc(F)cc5)c4=O)cc3F)c2nc1OC [Compound 308, 5-Chloro-N-[4-[(6,7-dimethoxy-1,5-naphthyridin-4-yl)oxy]-3-fluorophenyl]-1-(4-fluorophenyl)-4,6-dimethyl-2-oxopyridine-3-carboxamide]
> 300 nM	< 100 nM	< 100 nM	> 300 nM	< 100 nM			COc1cnc2c(Oc3ccc(NC(=O)c4c(C)c(Cl)c(C)n(-c5ccc(F)cc5)c4=O)cc3F)ccnc2c1 [Compound 309, 5-Chloro-N-[3-fluoro-4-[(7-methoxy-1,5-naphthyridin-4-yl)oxy]phenyl]-1-(4-fluorophenyl)-4,6-dimethyl-2-oxopyridine-3-carboxamide]
> 300 nM	100 to 300 nM	< 100 nM	> 300 nM	< 100 nM			COc1cnc2c(Oc3ccc(NC(=O)c4c(C)c(Cl)c(C)n(-c5ccc(F)cc5)c4=O)cc3)ccnc2c1 [Compound 310, 5-Chloro-1-(4-fluorophenyl)-N-[4-[(7-methoxy-1,5-naphthyridin-4-yl)oxy]phenyl]-4,6-dimethyl-2-oxopyridine-3-carboxamide]
< 100 nM	< 100 nM	< 100 nM	< 100 nM	< 100 nM			CCOc1c(C)cn(-c2ccc(F)cc2)c(=O)c1C(=O)Nc1ccc(Oc2ccnc3cc(OC)c(OC)nc23)c(F)c1 [Compound 371, N-[4-[(6,7-dimethoxy-1,5-naphthyridin-4-yl)oxy]-3-fluorophenyl]-4-ethoxy-1-(4-fluorophenyl)-5-methyl-2-oxopyridine-3-carboxamide]
< 100 nM	< 100 nM	< 100 nM	< 100 nM	< 100 nM			COc1cc2nccc(Oc3ccc(NC(=O)c4c(OC)c(C)cn(-c5ccc(F)cc5)c4=O)cc3F)c2nc1OC [Compound 372, N-[4-[(6,7-dimethoxy-1,5-naphthyridin-4-yl)oxy]-3-fluorophenyl]-1-(4-fluorophenyl)-4-methoxy-5-methyl-2-oxopyridine-3-carboxamide]
< 100 nM	< 100 nM	< 100 nM	< 100 nM	< 100 nM			CNC(=O)Cc1cc2c(Oc3ccc(NC(=O)c4cnc(C)c(-c5ccc(F)cc5)c4O)cc3F)ccnc2cc1OC [Compound 376, N-[3-fluoro-4-[7-methoxy-6-[2-(methylamino)-2-oxoethyl]quinolin-4-yl]oxyphenyl]-5-(4-fluorophenyl)-4-hydroxy-6-methylpyridine-3-carboxamide]
> 300 nM	< 100 nM	< 100 nM	> 300 nM	< 100 nM			COc1ccc2nccc(Oc3ccc(NC(=O)c4cnc(C)n(-c5ccc(F)cc5)c4=O)cc3)c2n1 [Compound 385, 1-(4-fluorophenyl)-N-[4-[(6-methoxy-1,5-naphthyridin-4-yl)oxy]phenyl]-2-methyl-6-oxopyrimidine-5-carboxamide]
		< 100 nM	< 100 nM	< 100 nM	100 to 300 nM	< 100 nM	COc1cc2nccc(Oc3ccc(NC(=O)c4ccnn(-c5ccc(F)cc5C)c4=O)cc3F)c2nc1OC [Compound 527, N-[4-[(6,7-dimethoxy-1,5-naphthyridin-4-yl)oxy]-3-fluorophenyl]-2-(4-fluoro-2-methylphenyl)-3-oxopyridazine-4-carboxamide]
		< 100 nM	< 100 nM	< 100 nM	100 to 300 nM	< 100 nM	COc1cc2nccc(Oc3ccc(NC(=O)c4ccnn(-c5ccc(F)cc5C)c4=O)cc3)c2nc1OC [Compound 528, N-[4-[(6,7-dimethoxy-1,5-naphthyridin-4-yl)oxy]phenyl]-2-(4-fluoro-2-methylphenyl)-3-oxopyridazine-4-carboxamide]
		< 100 nM	< 100 nM	< 100 nM	> 300 nM	100 to 300 nM	COc1cnc2c(Oc3ccc(NC(=O)c4ccnn(-c5ccc(F)cc5C)c4=O)cc3F)ccnc2c1 [Compound 529, N-[3-fluoro-4-[(7-methoxy-1,5-naphthyridin-4-yl)oxy]phenyl]-2-(4-fluoro-2-methylphenyl)-3-oxopyridazine-4-carboxamide]
		< 100 nM	> 300 nM	< 100 nM	> 300 nM	< 100 nM	CNC(=O)c1c(-c2ccc(F)cc2)c(=O)c(C(=O)Nc2ccc(Oc3ccnc4cc(OC)c(OC)nc34)c(F)c2)cn1C [Compound 563, 5-N-[4-[(6,7-Dimethoxy-1,5-naphthyridin-4-yl)oxy]-3-fluorophenyl]-3-(4-fluorophenyl)-2-N,1-dimethyl-4-oxopyridine-2,5-dicarboxamide]
		< 100 nM	> 300 nM	< 100 nM	> 300 nM	< 100 nM	COc1cnc2c(Oc3ccc(NC(=O)c4nn(C(C)C)c(C)c(-c5ccc(F)cc5)c4=O)cc3F)ccnc2c1 [Compound 566, N-[3-Fluoro-4-[(7-methoxy-1,5-naphthyridin-4-yl)oxy]phenyl]-5-(4-fluorophenyl)-6-methyl-4-oxo-1-propan-2-ylpyridazine-3-carboxamide]
